Columns and labels:
[1] = test system: rhesus PSMA; assay: IFNγ ELISPOT of PBMCs, PSMA DNA electroporation with or without CpG in Chinese cynomolgus macaques, rhesus PSMA peptide pools; type: in vivo; conditions: group 6: 200 μg CpG co-electroporated, compared to animals that did not receive CpG (group 1); P<0.05
Method: (§1) Six groups of Chinese cynomolgus macaques, six (#1 to 6) per each test group, were immunized with a plasmid DNA encoding the human PSMA modified antigen (amino acids 15-750 of SEQ ID NO:1) delivered by electroporation. Briefly, all animals received bilateral intramuscular injections of 5 mg of plasmid DNA followed by electroporation (DNA EP) on day 0. Subsequently right after the electroporation, group 2 received bilateral intramuscular injections of 2 mg of CpG mixed with 1 mg Alum in proximity to the DNA injection sites. Group 3 and 4 received bilateral intramuscular injections of 2 mg of CpG delivered without alum in proximity to the DNA injection sites either on day 0 or day 3, respectively. Group 5 received 2 mg of bilateral intradermal injections of CpG delivered in proximity to the vaccine draining inguinal nodes on day 3. Group 6 received bilateral injections of 200 μg of CpG mixed with the DNA solution which was co-electroporated into the muscle on day 0.
Peripheral blood samples were collected from each animal fifteen days after the DNA immunization. Peripheral blood mononuclear cells (PBMCs) were isolated from the blood samples and were subjected to an IFNγELISPOT assay to measure the PSMA specific T cell responses. […] The number of IFNγ spot forming cells (SFC) were counted by CTL reader. […] ND indicates not determined.

[2] = test system: rHER2; assay: IFNγ ELISPOT, rHER2 DNA vaccine with CpG7909 or anti-CD40 in BALB/c mice; type: in vivo, mouse; conditions: FIG. 40; intradermal after PMED; CpG7909 50 g or anti-CD40 100 ug as printed; versus control antibodies; 7 days after PMED
Method: The effect of local administration of immune modulators on the magnitude and quality of antigen specific immune responses induced by a cancer was investigated in BALB/c mice, in which the immune response was assessed by measuring rHER2 specific T cell responses using the IFNγ ELISPOT assay or intracellular cytokine staining assay. Briefly, 4 to 6 female BALB/c mice per group as indicated were immunized with DNA plasmid expression constructs encoding rHER2 antigen sequences (SEQ ID NO:54) by PMED delivery system. […] Antigen specific T cell responses were measured by IFNγ […]ELISPOT or intracellular cytokine staining assay according to the procedure described below.
Briefly, each mouse per treatment group (n=4) was immunized with DNA plasmid expression constructs encoding rHER2 antigen sequences (SEQ ID NO:54) by PMED immediately followed by either 100 ug of control rat IgG monoclonal antibody (Bioxcell #BE0089: control mAb) or 50 g CpG7909 or 100 ug of anti-CD40 monoclonal antibody (Bioxcell #BE0016-2: a-CD40 mAb) as indicated. The antigen specific immune responses were measured by IFNγ ELISPOT assay from 5e5 splenocytes mixed with control or rHer-2 specific p66 peptides at 10 µg/ml concentration, 7 days after the PMED actuation. […]

[3] = test system: rHER2; assay: Intracellular cytokine staining, rHER2 DNA vaccine with CpG 7909 or anti-CD40 in BALB/c mice; type: in vivo, rat; conditions: FIGS. 41A, 41B; CpG 7909 intradermal after both PMED immunizations, versus PBS
Method: The effect of local administration of immune modulators on the magnitude and quality of antigen specific immune responses induced by a cancer was investigated in BALB/c mice, in which the immune response was assessed by measuring rHER2 specific T cell responses using the IFNγ ELISPOT assay or intracellular cytokine staining assay. Briefly, 4 to 6 female BALB/c mice per group as indicated were immunized with DNA plasmid expression constructs encoding rHER2 antigen sequences (SEQ ID NO:54) by PMED delivery system. The immune modulators, CpG7909 (PF-03512676) and anti-CD40 monoclonal agonistic antibody, were administered locally by intradermal injections in proximity to the vaccine draining inguinal lymph node subsequently after the PMED actuations. Antigen specific T cell responses were measured by IFNγ […]ELISPOT or intracellular cytokine staining assay according to the procedure described below.
The rHer-2 specific polyfunctional (multi-cytokine positive) T cell immune responses were measured from splenocytes or PBMCs isolated from individual animals by ICS assay. […] The total number of antigen specific single, double or triple cytokine positive T cells per total spleen of each animal is calculated by subtracting the rHer-2 specific responses to the irrelevant peptide HBV from the vaccine specific responses and normalized to the total number of splenocytes isolated from the spleen.

[4] = cited from earlier work
[5] = test system: human PSMA; assay: IFNγ ELISPOT of PBMCs, PSMA DNA electroporation with or without CpG in Chinese cynomolgus macaques, human PSMA peptide pools; type: in vivo, cynomolgus macaque; conditions: for animals that failed to produce high responses: intramuscular right after electroporation on day 0; for animals with modestly higher total response to the PSMA peptides: 3 days after DNA electroporation, cynomolgus
Method: as §1
Peripheral blood samples were collected from each animal fifteen days after the DNA immunization. Peripheral blood mononuclear cells (PBMCs) were isolated from the blood samples and were subjected to an IFNγELISPOT assay to measure the PSMA specific T cell responses. Briefly, 4e5 PBMCs from individual animals were plated per well with pools of PSMA specific peptides or nonspecific control peptides (human HER2 peptide pool) each at 2 ug/ml in IFNγELISPOT plates. The plates were incubated for 16 hrs at 37° C. and 5% CO2 and washed and developed after incubation as per manufacturer's instruction. The number of IFNγ spot forming cells (SFC) were counted by CTL reader. Each condition was performed in duplicates. […] ND indicates not determined.

[6] = test system: LNCaP; assay: Antibody-dependent cell-mediated cytotoxicity, chromium 51 release, human PBMC effectors; type: cell-based; conditions: target LNCaP (PSMA+); plasma 1:50 or control mAb
Method: (§2) An Indian rhesus macaque was immunized with a nucleic acid encoding a human PSMA modified antigen delivered by adenovirus (1e11 V.P. injected intramuscularly) followed by 2 PMED immunizations (8 actuations/immunization, 4 actuations per each right and left side of the lower abdomen) with 8 and 6 week intervals respectively. The animal also received intradermal injections of 3 mg of CpG (PF-03512676) in proximity to each inguinal draining lymph node at the time of the second PMED immunization. The antibody dependent cell-mediated cytotoxicity was determined from the plasma collected from the blood before any immunizations (pre-immune plasma) and 8 days after the last PMED immunization (immune plasma).
(§3) Antibody-dependent cell-mediated cytotoxicity was determined using the standard chromium 51 release assay. Human prostate cancer cell lines LNCaP and PC3 were used as target cells. Freshly isolated human PBMC cells were used as effector cells. Effectors to target cells were set at 30:1. Briefly, for one labeling reaction, 1.5×10^6 target cells in 200 ul were incubated with 200 μCi ^51Cr (37° C., 5% CO2 for 1 hour).

[7] = test system: PC3; assay: as above; type: cell-based; conditions: target PC3 (PSMA negative); plasma 1:50 or control mAb
Method: as §2, §3

Row | Substance | response to peptide pool R1 [1] | magnitude of antigen specific immune responses induced by rHer-2 DNA (IFNγ ELISPOT, p66 peptide) [2] | rHer-2 specific multi-cytokine positive CD8 and CD4 T cell responses [3] | single intravenous dose well tolerated with no clinical effects and no significant toxicity ([4]; patients with previously treated chronic lymphocytic leukemia) | dose limiting toxicity ([4]; single dose subcutaneous) | maximum tolerated dose (MTD) ([4]; single dose subcutaneous) [mg/kg] | animals that failed to produce high responses ([5]; group 2: CpG 2 mg mixed with 1 mg Alum) | animals that failed to produce high responses ([5]; group 3: CpG 2 mg without alum) | animals with modestly higher total response to the PSMA peptides ([5]; group 4: CpG 2 mg bilateral intramuscular) | animals with modestly higher total response to the PSMA peptides ([5]; group 5: CpG 2 mg bilateral intradermal) | animals with higher net responses ([5]; group 6: 200 μg CpG co-electroporated with the DNA solution into the muscle) | response to peptide pool H1 ([5]; group 6: 200 μg CpG co-electroporated, compared to animals that did not receive CpG (group 1), P<0.05) | Percent specific lysis at E:T of 30:1 [6] [%] | Percent specific lysis at E:T of 30:1 [7] [%]
1 | 5′ TCGTCGTTTTGTCGTTTTGTCGTT3′ [CpG 7909] | statistically higher response | significantly enhanced the magnitude of antigen specific immune responses | significant increase | up to 1.05 mg/kg | myalgia and constitutional effects | 0.45 | 4/6 | 3/6 | 3/6 | 2/6 | 4/6 | statistically higher response | – | –
2 | Rituxan: monoclonal against B cell antigen (CD20), negative control antibody | – | – | – | – | – | – | – | – | – | – | – | – | 8.99 | 0

From US11110158B2, “Prostate-associated antigens and vaccine-based immunotherapy regimens” (Pfizer Inc., priority 2012, dated 2021)
